Results: paper PMC6236447 (Molecules : A Journal of Synthetic Chemistry and Natural …, 2001)
Where a SMILES comes first, the peptide text is derived from it. [ ]: non-standard residue; d: D form. Ahx = NCCCCCC(=O)O

Columns and labels:
hY1-receptor = target: T1, hY1-receptor (Homo sapiens, UniProt P25929); experiment: Radioligand displacement binding on SK-N-MC membranes
T1 sequence (P25929 1-384): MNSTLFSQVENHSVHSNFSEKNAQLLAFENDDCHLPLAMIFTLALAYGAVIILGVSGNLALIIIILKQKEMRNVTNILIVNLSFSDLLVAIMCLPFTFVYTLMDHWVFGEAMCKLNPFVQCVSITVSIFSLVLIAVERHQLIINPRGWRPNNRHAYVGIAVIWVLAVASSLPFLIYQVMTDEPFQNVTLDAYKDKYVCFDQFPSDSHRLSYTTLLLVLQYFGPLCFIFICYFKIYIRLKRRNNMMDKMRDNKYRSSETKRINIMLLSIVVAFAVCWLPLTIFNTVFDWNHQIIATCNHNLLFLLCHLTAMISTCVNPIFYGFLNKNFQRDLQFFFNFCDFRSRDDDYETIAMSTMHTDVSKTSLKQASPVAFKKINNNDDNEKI

hY5-receptor = target: T2, hY5-receptor (Homo sapiens, UniProt Q15761); experiment: Radioligand displacement binding on transfected BHK membranes
T2 sequence (Q15761 1-445): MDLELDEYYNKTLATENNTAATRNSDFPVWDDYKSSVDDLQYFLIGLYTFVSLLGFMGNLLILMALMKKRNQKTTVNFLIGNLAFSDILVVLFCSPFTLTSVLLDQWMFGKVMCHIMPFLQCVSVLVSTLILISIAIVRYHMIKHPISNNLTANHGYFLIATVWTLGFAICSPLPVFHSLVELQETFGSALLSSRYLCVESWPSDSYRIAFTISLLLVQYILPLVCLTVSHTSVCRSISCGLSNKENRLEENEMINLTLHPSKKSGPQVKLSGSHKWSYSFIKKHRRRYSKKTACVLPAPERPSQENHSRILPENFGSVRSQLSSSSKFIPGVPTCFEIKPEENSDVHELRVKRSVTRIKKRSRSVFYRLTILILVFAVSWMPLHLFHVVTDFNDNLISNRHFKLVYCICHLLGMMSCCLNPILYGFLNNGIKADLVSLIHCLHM

hY4-receptor = hY4-receptor (Homo sapiens, UniProt P50391); experiment: as above
hY4-receptor, sequence (P50391 whole entry): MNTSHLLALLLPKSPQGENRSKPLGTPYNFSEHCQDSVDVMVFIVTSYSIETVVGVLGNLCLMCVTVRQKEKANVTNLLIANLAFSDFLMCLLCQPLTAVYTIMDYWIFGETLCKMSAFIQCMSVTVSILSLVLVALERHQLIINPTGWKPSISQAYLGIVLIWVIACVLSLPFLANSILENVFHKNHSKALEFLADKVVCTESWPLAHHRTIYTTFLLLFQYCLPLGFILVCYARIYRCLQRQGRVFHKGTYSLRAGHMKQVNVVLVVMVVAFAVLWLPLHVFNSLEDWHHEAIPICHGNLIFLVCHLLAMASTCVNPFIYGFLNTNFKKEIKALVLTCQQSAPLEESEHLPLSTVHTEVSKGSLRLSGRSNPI

hY2-receptor = target: T3, hY2-receptor (Homo sapiens, UniProt P49146); experiment: Radioligand displacement binding on SMS-KAN membranes
T3 sequence (P49146 1-381): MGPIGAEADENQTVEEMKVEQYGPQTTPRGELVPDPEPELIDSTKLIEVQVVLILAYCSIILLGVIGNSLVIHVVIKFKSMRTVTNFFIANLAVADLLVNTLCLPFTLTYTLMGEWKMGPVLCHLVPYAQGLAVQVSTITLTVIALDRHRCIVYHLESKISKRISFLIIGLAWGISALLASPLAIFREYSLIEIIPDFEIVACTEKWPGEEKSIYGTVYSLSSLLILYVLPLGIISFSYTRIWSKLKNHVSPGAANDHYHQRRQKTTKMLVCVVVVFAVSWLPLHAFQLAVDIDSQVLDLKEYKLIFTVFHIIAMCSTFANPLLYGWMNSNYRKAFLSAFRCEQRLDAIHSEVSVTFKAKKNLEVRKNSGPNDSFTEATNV

Row | SMILES | IC50 (hY1-receptor) | IC50 (hY5-receptor) | IC50 (hY4-receptor) | IC50 (hY2-receptor)
1 | CC[C@H](C)[C@H](NC(=O)[C@H](Cc1ccc(O)cc1)NC(=O)[C@H](Cc1cnc[nH]1)NC(=O)[C@H](CCCNC(=N)N)NC(=O)CCCCCNC(=O)[C@H](CCCCN)NC(=O)[C@H](CO)NC(=O)[C@@H]1CCCN1C(=O)[C@@H](N)Cc1ccc(O)cc1)C(=O)N[C@@H](CC(N)=O)C(=O)N[C@@H](CC(C)C)C(=O)N[C@H](C(=O)N[C@H](C(=O)N[C@@H](CCCNC(=N)N)C(=O)N[C@@H](CCC(N)=O)C(=O)N[C@@H](CCCNC(=N)N)C(=O)N[C@@H](Cc1ccc(O)cc1)C(N)=O)[C@@H](C)O)[C@@H](C)CC [[Ahx^5-24]-NPY] (H-YPSK[Ahx]RHYINLITRQRY-NH2) | > 1000 nM | 795 nM | 600 nM | 1.4 nM
2 | CC[C@H](C)[C@H](NC(=O)[C@H](Cc1ccc(O)cc1)NC(=O)[C@H](CCCNC(=N)N)NC(=O)[C@H](CCCNC(=N)N)NC(=O)CCCCCNC(=O)[C@H](CCC(=O)O)NC(=O)[C@H](CC(C)C)NC(=O)[C@@H]1CCCN1C(=O)[C@H](C)N)C(=O)N[C@@H](CC(N)=O)C(=O)N[C@@H](CCSC)C(=O)N[C@@H](CC(C)C)C(=O)N[C@H](C(=O)N[C@@H](CCCNC(=N)N)C(=O)N1CCC[C@H]1C(=O)N[C@@H](CCCNC(=N)N)C(=O)N[C@@H](Cc1ccc(O)cc1)C(N)=O)[C@@H](C)O [[Ahx^5-24]-hPP] (H-APLE[Ahx]RRYINMLTRPRY-NH2) | > 500 nM | > 1000 nM | 144 nM | > 1000 nM
3 | CC[C@H](C)[C@H](NC(=O)[C@H](Cc1ccc(O)cc1)NC(=O)[C@H](Cc1c[nH]cn1)NC(=O)[C@H](CCCNC(=N)N)NC(=O)[C@H](CC(C)C)NC(=O)[C@H](C)NC(=O)[C@H](CO)NC(=O)[C@H](Cc1ccc(O)cc1)NC(=O)CCCCCNC(=O)[C@H](CC(N)=O)NC(=O)[C@H](CC(=O)O)NC(=O)[C@@H]1CCCN1C(=O)[C@H](CCCCN)NC(=O)[C@H](CO)NC(=O)[C@@H]1CCCN1C(=O)[C@@H](N)Cc1ccc(O)cc1)C(=O)N[C@@H](CC(N)=O)C(=O)N[C@@H](CC(C)C)C(=O)N[C@H](C(=O)N[C@H](C(=O)N[C@@H](CCCNC(=N)N)C(=O)N[C@@H](CCC(N)=O)C(=O)N[C@@H](CCCNC(=N)N)C(=O)N[C@@H](Cc1ccc(O)cc1)C(N)=O)[C@@H](C)O)[C@@H](C)CC [[Ahx^8-20]-NPY] (H-YPSKPDN[Ahx]YSALRHYINLITRQRY-NH2) | – | 31 nM | 67 nM | –
4 | CC[C@H](C)[C@H](NC(=O)[C@H](Cc1ccc(O)cc1)NC(=O)[C@H](Cc1c[nH]cn1)NC(=O)[C@H](CCCNC(=N)N)NC(=O)CCCCCNC(=O)[C@H](CCCCN)NC(=O)[C@H](CO)NC(=O)[C@@H]1CCCN1C(=O)[C@@H](N)Cc1ccc(O)cc1)C(=O)N[C@@H](CC(N)=O)C(=O)N[C@@H](CC(C)C)C(=O)N[C@H](C(=O)N[C@H](C(=O)N[C@@H](CCCNC(=N)N)C(=O)N1CCC[C@H]1C(=O)N[C@@H](CCCNC(=N)N)C(=O)N[C@@H](Cc1ccc(O)cc1)C(N)=O)[C@@H](C)O)[C@@H](C)CC [[Ahx^5-24, ^P34]-NPY] (H-YPSK[Ahx]RHYINLITRPRY-NH2) | – | > 10000 nM | 514 nM | –
5 | CC[C@H](C)[C@H](NC(=O)[C@H](Cc1ccc(O)cc1)NC(=O)[C@H](CCCNC(=N)N)NC(=O)[C@H](CCCNC(=N)N)NC(=O)[C@H](CC(C)C)NC(=O)[C@H](CC(=O)O)NC(=O)[C@H](C)NC(=O)[C@H](C)NC(=O)CCCCCNC(=O)[C@H](CCC(=O)O)NC(=O)[C@H](CC(C)C)NC(=O)[C@@H]1CCCN1C(=O)[C@H](C)N)C(=O)N[C@@H](CC(N)=O)C(=O)N[C@@H](CCSC)C(=O)N[C@@H](CC(C)C)C(=O)N[C@H](C(=O)N[C@@H](CCCNC(=N)N)C(=O)N1CCC[C@H]1C(=O)N[C@@H](CCCNC(=N)N)C(=O)N[C@@H](Cc1ccc(O)cc1)C(N)=O)[C@@H](C)O [[Ahx^5-20]-hPP] (H-APLE[Ahx]AADLRRYINMLTRPRY-NH2) | > 1500 nM | > 7000 nM | 216 nM | > 1000 nM
